Earlier results as cited in patent publication US9533050B2, “Vaginal ring including meloxicam and an agent for modulating the release of the active principle, which can be used as a continuous-use contraceptive in women” (LABORATORIOS ANDROMACO S.A., priority 2011, dated 2017).

How the values were obtained:
ovulation = settings: women
follicular rupture = settings: 25 mg oral once daily for 9 days
[1] = 15 mg tablets orally, older women

Compound: COc1ccc2c(c1)c(CC(=O)O)c(C)n2C(=O)c1ccc(Cl)cc1 [Indomethacin, indomethacin]
- delay of ovulation (ovulation): 2 to 12 days

Compound: Cc1cnc(NC(=O)C2=C(O)c3ccccc3S(=O)(=O)N2C)s1 [meloxicam]
- maximum plasma concentrations (7.5 mg orally, tablets): 1.05 µg/mL
- time of maximum plasma concentration (7.5 mg orally, tablets): 4.9 h
- plasma concentrations [1]: 3200 ng/mL
- time of plasma concentration [1]: 6 h

Compound: CS(=O)(=O)c1ccc(C2=C(c3ccccc3)C(=O)OC2)cc1 [rofecoxib]
- inhibition of ovulation (follicular rupture): not sufficient to inhibit ovulation
- women with delay in the late follicular rupture (follicular rupture): 4 of the 6
